{"source": "patent US11091535B2", "about": "“Thrombin inhibitors for treatment of stroke and related coagulative disorders” (THE UNIVERSITY OF SYDNEY, priority 2016, dated 2021)", "test_system": "pooled citrated plasma", "assay": "in vitro activated partial thromboplastin time (APTT) assay", "design": "species or system mice", "conditions": "hirudin at concentrations above 2 μg/mL", "method": "The anticoagulant activity of the thrombin inhibitors disclosed herein is determined by measuring their ability to prolong clotting of human plasma in vitro using a clinical TT assay. Briefly, human plasma from healthy donors (800 μL) is mixed with a concentration range of inhibitors, clotting initiated by addition of thrombin, and clotting time measured using a coagulometer. Compounds which prolong clotting time to 30 sec at a concentration of 50 nM may be further investigated in vitro/ex vivo for APTT. In brief, pooled citrated plasma from C57BL6/J mice is pre-incubated with various concentrations (0-12 μg/mL) of inhibitors. APTT of each plasma sample is quantified following addition of a coagulation activator and CaCl2). In an ex vivo assay, mice are injected i.v. with inhibitors (fixed concentration determined from in vitro APTT) and whole blood collected into sodium citrate (˜130 μL) 0, 5, 30 and 60 min post-administration. APTT is quantified on isolated plasma using a RANDOX APTT kit, with fibrin generation monitored to measure clotting time.\nWe investigated the ability of the inhibitor of Example 2 (A^Aa) to prolong clotting time in an in vitro activated partial thromboplastin time (APTT) assay (FIG. 1A)."}
{"substance": "hirudin", "values": [{"measurement": "increase in clotting time (APTT)", "result": 8, "unit": "fold"}]}
